Data set [1] relates to Hepatoma cell Hep3B (high expression of FGFR4 and FGF19). Nature of the data set: Hepatoma cell proliferation inhibition experiment (MTS method). The settings on record: for IC50: Homo sapiens, Hep3B, read-out: Hep3B(IC50 μM). The class given is cell-based. The source says:
In this experiment, the MTS method was used to test the inhibitory effect of the compounds on the proliferation of Hepatoma cell Hep3B (high expression of FGFR4 and FGF19), and the half inhibitory concentration IC50 of the compounds to Hep3B was obtained. The Hep3B cell line was purchased from ATCC, and the complete culture medium of the Hep3B cell line was MEM+10% FBS+1% PS. MEM cell culture medium, fetal bovine serum, and trypsin were purchased from Gibco, cell culture flasks were purchased from Greiner, and disposable Cell Counting Plate and Taittinger Blue Solution were purchased from Bio-Rad.
(1) 100 μl Hepatoma cell Hep3B suspension was seeded in a 96-well cell culture plate, and the density of each well was 2.0×10^4 cells/ml.
(3) A mixture of MTS (3-(4,5-dimethylthiazol-2-yl)-5-(3-carboxymethoxyphenyl)-2-(4-sulfophenyl)-2H-tetrazolium)/PMS (phenazine methosulfate) was added into each well for coloration, and MTS/PMS in the mixture was at a ratio of 20:1 (ml:ml). 30 μl of the mixture was added into each well of the culture plate above mentioned in step (2), then the culture plate was incubated for 3 h in the incubator.
(5) The inhibition rate was calculated by the […];
(6) According to the inhibition rate of the different concentrations, the IC50 values of the compounds were obtained by curve fitting.

Data set [2] has as its target T1, FGFR4 kinase (Homo sapiens (Human), UniProt P22455).
Data set [3] has as its target T1, FGFR4 kinase. Nature of the data set: biochemical.
A short description of another data set: PK analysis of rats. The settings on record: p.o. (10 mg/kg); for AUC(0-t) / Cmax: rat, plasma, po; for AUC(0-t): read-out: Curve area AUC0-24 h; for Cmax: read-out: Drug concentration in blood Cmax. The format is in vivo. As for the experimental part: In the present invention, the pharmacokinetics experiment of the compounds in rats was performed using the SD rats (Vitolihua).
(1) Mode of administration: single gavage administration and intravenous injection administration.
(2) Dosage: 10 mg/kg in the gavage administration, 3 mg/kg in the intravenous injection administration.
Gavage administration: before administration, 15 min, 30 min, 1 h, 2 h, 4 h, 6 h, 8 h, 24 h; […]
(4) Sample processing: 200 μL of orbital blood was collected at each sampling time point. After anticoagulation with heparin, the blood was centrifuged at 5500 rpm for 10 min, and 60 μL of the supernatant was taken and put into the refrigerator at −80° C. for waiting for testing.
Samples obtained after administration of Compound 1 were tested using 4000 LC-MS/MS analyzer, wherein, the chromatographic separation conditions for testing were:
Samples obtained after administration of Compound 7 were tested using 4000 LC-MS/MS analyzer, wherein, the chromatographic separation conditions for testing were:
Samples obtained after administration of Compound 16 were tested using 4000 LC-MS/MS analyzer, wherein, the chromatographic separation conditions for testing were: […]

The values below come from US11136320B2, “Fused ring derivative used as FGFR4 inhibitor” (JACOBIO PHARMACEUTICALS CO., LTD., priority 2019, dated 2021).

Counter-ions that a name gives are not always drawn. Like-named read-outs stand apart in the source and are kept apart here.

The term IC50 denotes the concentration that gives 50% inhibition.

T1 sequence (P22455 22-802): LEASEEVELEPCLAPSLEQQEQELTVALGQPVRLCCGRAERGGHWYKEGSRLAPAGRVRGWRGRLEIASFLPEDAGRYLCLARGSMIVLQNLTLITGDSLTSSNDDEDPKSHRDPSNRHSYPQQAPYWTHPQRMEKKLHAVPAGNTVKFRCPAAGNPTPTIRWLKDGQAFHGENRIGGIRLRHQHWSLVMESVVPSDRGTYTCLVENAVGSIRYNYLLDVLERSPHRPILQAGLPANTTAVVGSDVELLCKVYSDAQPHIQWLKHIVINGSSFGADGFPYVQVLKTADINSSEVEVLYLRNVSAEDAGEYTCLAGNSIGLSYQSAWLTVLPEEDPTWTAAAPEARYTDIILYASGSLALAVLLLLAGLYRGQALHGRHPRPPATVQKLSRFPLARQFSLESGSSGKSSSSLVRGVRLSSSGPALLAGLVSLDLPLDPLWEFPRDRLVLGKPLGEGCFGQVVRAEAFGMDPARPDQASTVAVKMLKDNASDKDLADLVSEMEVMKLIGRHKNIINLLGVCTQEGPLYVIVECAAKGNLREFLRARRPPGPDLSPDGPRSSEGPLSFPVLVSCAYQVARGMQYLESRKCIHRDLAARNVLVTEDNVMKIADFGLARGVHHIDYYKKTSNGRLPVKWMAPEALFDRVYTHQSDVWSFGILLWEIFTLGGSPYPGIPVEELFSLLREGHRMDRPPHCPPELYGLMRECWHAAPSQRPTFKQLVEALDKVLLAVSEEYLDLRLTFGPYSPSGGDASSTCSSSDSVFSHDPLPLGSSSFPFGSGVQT

As for `C[C@H](C[S+](C)[O-])Nc1cc(NC(=O)N2CCCc3cc(CN4CCN(C)CC4=O)c(C=O)nc32)ncc1C#N` (stereo partly drawn) [Compound 69, N-(5-cyano-4-(((2R)-1-(methylsulfinyl)propan-2-yl)amino)pyridin-2-yl)-7-formyl-6-((4-methyl-2-oxopiperazin-1-yl)methyl)-3,4-dihydro-1,8-naphthyridine-1(2H)-carboxamide], the IC50 in data set [1] (120 h incubation) was found to be 0.067 µM; against FGFR4 kinase [3] it was 2.1 nM. Moreover, the “inhibitory effect on FGFR4 compared with the reference compound” value against FGFR4 kinase [2] was “better inhibitory effect on FGFR4 than the reference compound”.
With `CN1CCN(Cc2cc3c(nc2C=O)N(C(=O)Nc2cc(NCc4cncs4)c(C#N)cn2)CCC3)C(=O)C1` [Compound 55, N-(5-cyano-4-((thiazol-5-yl-methyl)amino)pyridin-2-yl)-7-formyl-6-((4-methyl-2-oxopiperazin-1-yl)methyl)-3,4-dihydro-1,8-naphthyridine-1(2H)-carboxamide], half-maximal inhibition against FGFR4 kinase [3] (IC50) required 3 nM.
For `CSCCNc1cc(NC(=O)N2CCCc3cc(CN(C)C(=O)[C@H]4CCCO4)c(C=O)nc32)ncc1C#N` [Compound 74, (R)-N-(5-cyano-4-((2-(methylthio)ethyl)amino)pyridin-2-yl)-7-formyl-6-((N-methyltetrahydrofuran-2-carboxamido)methyl)-3,4-dihydro-1,8-naphthyridine-1(2H)-carboxamide hydrochloride], the IC50 in data set [1] (120 h incubation) amounted to 0.06 µM.
For the molecule `CN1CCN(Cc2cc3c(nc2C=O)N(C(=O)Nc2cc(NCc4cscn4)c(C#N)cn2)CCC3)C(=O)C1` [Compound 59, N-(5-Cyano-4-((thiazol-4-yl-methyl)amino)pyridin-2-yl)-7-formyl-6-((4-methyl-2-oxopiperazin-1-yl)methyl)-3,4-dihydro-1,8-naphthyridine-1(2H)-carboxamide], the “inhibitory effect on FGFR4 compared with the reference compound” value against FGFR4 kinase [2] is recorded as “better inhibitory effect on FGFR4 than the reference compound”. Besides, half-maximal inhibition against FGFR4 kinase [3] (IC50) required 2.1 nM.
For the molecule `CN1CCN(Cc2cc3c(nc2C=O)N(C(=O)Nc2cc(NC4CCSCC4)c(C#N)cn2)CCC3)C(=O)C1` [Compound 20, N-(5-cyano-4-((tetrahydro-2H-thiopyran-4-yl)amino)pyridin-2-yl)-7-formyl-6-((4-methyl-2-oxopiperazin-1-yl)methyl)-3,4-dihydro-1,8-naphthyridine-1(2H)-carboxamide], in data set [1], the “inhibitory effect on Hepatoma cell Hep3B compared with the reference compound” value is on record as “better inhibitory effect”. Further, the IC50 in data set [1] (120 h incubation) is 0.021 µM. In the data set “PK analysis of rats” (SD rats), the “exposure amount AUC0-24 h and maximum drug concentration in blood Cmax compared with the reference compound” value was “significantly higher than the reference compound”; the AUC(0-t) stood at 2000 ng·h/mL; the Cmax came out at 514 ng/mL. Besides, the half-inhibitory concentration (IC50) against FGFR4 kinase [3] is 4.4 nM.
In the case of `CSCCNc1cc(NC(=O)N2CCCc3cc(CN4CCCCOC4=O)c(C=O)nc32)ncc1C#N` [Compound 16, N-(5-cyano-4-((2-(methylthio)ethyl)amino)pyridin-2-yl)-7-formyl-6-((2-oxo-1,3-oxazepan-3-yl)methyl)-3,4-dihydro-1,8-naphthyridine-1(2H)-carboxamide], in data set [1] (120 h incubation), the IC50 stood at 0.029 µM. In the data set “PK analysis of rats” (SD rats), the “exposure amount AUC0-24 h and maximum drug concentration in blood Cmax compared with the reference compound” value was “significantly higher than the reference compound”; the AUC(0-t) turned out to be 3670 ng·h/mL; the Cmax was 936 ng/mL.
For `Cc1ccc(CNc2cc(NC(=O)N3CCCc4cc(CN5CCN(C)CC5=O)c(C=O)nc43)ncc2C#N)s1` [Compound 58, N-(5-cyano-4-(((5-methyl-thiophen-2-yl)methyl)amino)pyridin-2-yl)-7-formyl-6-((4-methyl-2-oxopiperazin-1-yl)methyl)-3,4-dihydro-1,8-naphthyridine-1(2H)-carboxamide], the “inhibitory effect on FGFR4 compared with the reference compound” value against FGFR4 kinase [2] was “better inhibitory effect on FGFR4 than the reference compound”. Also, the IC50 against FGFR4 kinase [3] turned out to be 2.1 nM.
In the case of `CO[C@@H]1CCN(Cc2cc3c(nc2C=O)N(C(=O)Nc2cc(N[C@H](C)CSC)c(C#N)cn2)CCC3)C1=O` [Compound 9, N-(5-cyano-4-(((R)-1-(methylthio)propan-2-yl)amino)pyridin-2-yl)-7-formyl-6-(((R)-3-methoxy-2-oxopyrrolidin-1-yl)methyl)-3,4-dihydro-1,8-naphthyridine-1(2H)-carboxamide], the “inhibitory effect on Hepatoma cell Hep3B compared with the reference compound” value in data set [1] is given as “better inhibitory effect”. Further, the IC50 in data set [1] (120 h incubation) was 0.009 µM.
Turning to `CSC[C@H](C)Nc1cc(NC(=O)N2CCCc3cc(CN4CCN(C)CC4=O)c(C=O)nc32)ncc1C#N` [Compound 11, (S)-N-(5-cyano-4-((1-(methylthio)propan-2-yl)amino)pyridin-2-yl)-7-formyl-6-((4-methyl-2-oxopiperazin-1-yl)methyl)-3,4-dihydro-1,8-naphthyridine-1(2H)-carboxamide], the IC50 in data set [1] (120 h incubation) worked out at 0.035 µM.
As for `CSCC(C)Nc1cc(NC(=O)N2CCCc3cc(CN4CCN(C)CC4=O)c(C=O)nc32)ncc1C#N` (stereo not drawn) [Compound 82, N-(5-cyano-4-((1-(methyl-thio)propan-2-yl)amino)pyridin-2-yl)-7-formyl-6-((4-methyl-2-oxopiperazin-1-yl)methyl)-3,4-dihydro-1,8-naphthyridine-1(2H)-carboxamide], the “inhibitory effect on Hepatoma cell Hep3B compared with the reference compound” value in data set [1] is “better inhibitory effect”. Further, the IC50 in data set [1] (120 h incubation) amounted to 0.02 µM.
In the same order, the values of `CO[C@@H]1CCN(Cc2cc3c(nc2C=O)N(C(=O)Nc2cc(NCCSC)c(C#N)cn2)CCC3)C1=O` [Compound 8, (R)-N-(5-cyano-4-((2-(methylthio)ethyl)amino)pyridin-2-yl)-7-formyl-6-((3-methoxy-2-oxopyrrolidin-1-yl)methyl)-3,4-dihydro-1,8-naphthyridine-1(2H)-carboxamide] are “better inhibitory effect” and 0.008 µM.
Turning to `CSCCNc1cc(NC(=O)N2CCCc3cc(CN4CCN(C)CC4=O)c(C=O)nc32)ncc1C#N` [Compound 1], the 50% inhibitory concentration (IC50) in data set [1] (120 h incubation) worked out at 0.023 µM. Further, the “exposure amount AUC0-24 h and maximum drug concentration in blood Cmax compared with the reference compound” value in the data set “PK analysis of rats” (SD rats) is listed as “significantly higher than the reference compound”. In “PK analysis of rats” (Sprague-Dawley (SD)), the AUC(0-t) was 2370 ng·h/mL and the Cmax amounted to 833 ng/mL. Also, it took 1.5 nM to reach half-maximal inhibition on FGFR4 kinase [3] (IC50).
Take `CN1CCN(Cc2cc3c(nc2C=O)N(C(=O)Nc2cc(NCc4ccsn4)c(C#N)cn2)CCC3)C(=O)C1` [Compound 68, N-(5-Cyano-4-((isothiazol-3-yl-methyl)amino)pyridin-2-yl)-7-formyl-6-((4-methyl-2-oxopiperazin-1-yl)methyl)-3-1,4-dihydro-1,8-naphthyridine-1(2H)-carboxamide]: the half-inhibitory concentration (IC50) in data set [1] (120 h incubation) came out at 0.026 µM.
Same read-out and setting: then `CSCCOc1cc(NC(=O)N2CCCc3cc(CN4CCN(C)CC4=O)c(C=O)nc32)ncc1C#N` [Compound 2], with 0.028 µM.
For `CCSCCNc1cc(NC(=O)N2CCCc3cc(CN4CCN(C)CC4=O)c(C=O)nc32)ncc1C#N` [Compound 71, N-(5-cyano-44 (2-(ethylthio)ethypamino)pyridin-2-yl)-7-formyl-64 (4-methyl-2-oxopiperazin-1-yl)methyl)-3,4-dihydro-1,8-naphthyridine-1 (2H)-carboxamide hydrochloride], the concentration for half-maximal inhibition (IC50) in data set [1] (120 h) was found to be 0.049 µM. In addition, the “exposure amount AUC0-24 h and maximum drug concentration in blood Cmax compared with the reference compound” value in “PK analysis of rats” (SD rats) is on record as “significantly higher than the reference compound”. Further, in the data set “PK analysis of rats” (Sprague-Dawley (SD)), the AUC(0-t) is 1950 ng·h/mL and the Cmax stood at 657 ng/mL. On FGFR4 kinase [3], this molecule had an IC50 of 2.4 nM.
In turn, `CC(Nc1cc(NC(=O)N2CCCc3cc(CN4CCN(C)CC4=O)c(C=O)nc32)ncc1C#N)c1nccs1` (stereo not drawn) [Compound 60, N-(5-cyano-4-((1-(thiazol-2-yl)ethyl)amino)pyridin-2-yl)-7-formyl-6-((4-methyl-2-oxopiperazin-1-yl)methyl)-3,4-dihydro-1,8-naphthyridine-1(2H)-carboxamide] came in with a half-inhibitory concentration (IC50) at FGFR4 kinase [3] of 3 nM.
